Measurements: PubChem BioAssay (NCI)
Where “and” joins values, the source holds several entries; their conditions need not be identical. Equal entries are not always repeated.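 Test compounds were applied to cells in 96-well plates for 48 hours at 5 doses. GI50 is the concentration that inhibits growth by half. TGI denotes the concentration required for complete inhibition of growth.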

What was measured:
Experiment in all cases: growth of human tumour cells (NCI), 48 h
EKVX NSCLC = tested on: EKVX NSCLC
IGROV1 ovarian = tested on: IGROV1 ovarian
SK-MEL-28 melanoma = tested on: SK-MEL-28 melanoma
NCI/ADR-RES ovarian = tested on: NCI/ADR-RES ovarian
MDA-MB-435 = tested on: MDA-MB-435
UACC-257 melanoma = tested on: UACC-257 melanoma
OVCAR-3 ovarian = tested on: OVCAR-3 ovarian
SW-620 colon = tested on: SW-620 colon
SF-268 CNS = tested on: SF-268 CNS
HOP-92 NSCLC = tested on: HOP-92 NSCLC
U251 CNS = tested on: U251 CNS
BT-549 breast = tested on: BT-549 breast
TK-10 renal = tested on: TK-10 renal
CAKI-1 renal = tested on: CAKI-1 renal
HOP-62 NSCLC = tested on: HOP-62 NSCLC
SR leukemia = tested on: SR leukemia
COLO 205 colon = tested on: COLO 205 colon
OVCAR-4 ovarian = tested on: OVCAR-4 ovarian
SK-MEL-2 melanoma = tested on: SK-MEL-2 melanoma
NCI-H460 lung = tested on: NCI-H460 lung
UACC-62 melanoma = tested on: UACC-62 melanoma
NCI-H522 lung = tested on: NCI-H522 lung
HCC-2998 colon = tested on: HCC-2998 colon
LOX IMVI melanoma = tested on: LOX IMVI melanoma
SF-539 CNS = tested on: SF-539 CNS
MALME-3M melanoma = tested on: MALME-3M melanoma
SK-OV-3 ovarian = tested on: SK-OV-3 ovarian
HCT-116 colon = tested on: HCT-116 colon
KM12 colon = tested on: KM12 colon
A549 NSCLC = tested on: A549 NSCLC
SNB-19 CNS = tested on: SNB-19 CNS
DU-145 prostate = tested on: DU-145 prostate
MDA-MB-231 breast = tested on: MDA-MB-231 breast
SK-MEL-5 melanoma = tested on: SK-MEL-5 melanoma
ACHN renal = tested on: ACHN renal
RXF 393 renal = tested on: RXF 393 renal
HS 578T breast = tested on: HS 578T breast
OVCAR-8 ovarian = tested on: OVCAR-8 ovarian
CCRF-CEM leukemia = tested on: CCRF-CEM leukemia
HT29 colon = tested on: HT29 colon
A498 renal = tested on: A498 renal
RPMI-8226 leukemia = tested on: RPMI-8226 leukemia
M14 melanoma = tested on: M14 melanoma
MCF7 breast = tested on: MCF7 breast
PC-3 prostate = tested on: PC-3 prostate
OVCAR-5 ovarian = tested on: OVCAR-5 ovarian
UO-31 renal = tested on: UO-31 renal
HCT-15 colon = tested on: HCT-15 colon
HL-60(TB) leukemia = tested on: HL-60(TB) leukemia
NCI-H226 lung = tested on: NCI-H226 lung
SF-295 CNS = tested on: SF-295 CNS
T-47D breast = tested on: T-47D breast
786-0 renal = tested on: 786-0 renal
NCI-H23 lung = tested on: NCI-H23 lung
MDA-N = tested on: MDA-N
SN12C renal = tested on: SN12C renal
MOLT-4 leukemia = tested on: MOLT-4 leukemia

SMILES: COC(=O)C1=COC(C)C2CN3CCc4c([nH]c5ccccc45)C3CC12 (stereo unspecified)
- GI50 (EKVX NSCLC): 17.8 µM and > 100 µM
- TGI (EKVX NSCLC): 80.9 µM and > 100 µM
- GI50 (IGROV1 ovarian): 22.1 µM and > 100 µM
- TGI (IGROV1 ovarian): 80.2 µM and > 100 µM
- GI50 (SK-MEL-28 melanoma): 16.1 µM and > 100 µM
- TGI (SK-MEL-28 melanoma): 41.8 µM and > 100 µM
- GI50 (NCI/ADR-RES ovarian): 22.6 µM and > 100 µM
- TGI (NCI/ADR-RES ovarian): > 100 µM
- TGI (MDA-MB-435): > 100 µM
- GI50 (UACC-257 melanoma): 34.2 µM and > 100 µM
- TGI (UACC-257 melanoma): > 100 µM
- GI50 (OVCAR-3 ovarian): 24.2 µM and > 100 µM
- TGI (OVCAR-3 ovarian): > 100 µM
- GI50 (SW-620 colon): 22.8 µM and > 100 µM
- TGI (SW-620 colon): 75.7 µM and > 100 µM
- TGI (SF-268 CNS): > 100 µM
- GI50 (HOP-92 NSCLC): 18.3 µM and > 100 µM
- TGI (HOP-92 NSCLC): 77.4 µM and > 100 µM
- GI50 (U251 CNS): 24.6 µM and > 100 µM
- TGI (U251 CNS): 81.4 µM and > 100 µM
- GI50 (BT-549 breast): 28 µM and > 100 µM
- TGI (BT-549 breast): > 100 µM
- GI50 (TK-10 renal): 27.7 µM and > 100 µM
- TGI (TK-10 renal): 88.5 µM and > 100 µM
- GI50 (CAKI-1 renal): 21.2 µM and > 100 µM
- TGI (CAKI-1 renal): 85.6 µM and > 100 µM
- TGI (HOP-62 NSCLC): > 100 µM
- GI50 (SR leukemia): 12.6 µM and 27.8 µM
- TGI (SR leukemia): 39.2 µM and > 100 µM
- GI50 (COLO 205 colon): 18.2 µM and > 100 µM
- TGI (COLO 205 colon): 36.4 µM and > 100 µM
- GI50 (OVCAR-4 ovarian): 25.4 µM and > 100 µM
- TGI (OVCAR-4 ovarian): > 100 µM
- GI50 (SK-MEL-2 melanoma): 20 µM and > 100 µM
- TGI (SK-MEL-2 melanoma): 92.1 µM and > 100 µM
- GI50 (NCI-H460 lung): 24 µM and > 100 µM
- TGI (NCI-H460 lung): 58.8 µM and > 100 µM
- GI50 (UACC-62 melanoma): 24.4 µM and > 100 µM
- TGI (UACC-62 melanoma): > 100 µM
- GI50 (NCI-H522 lung): 23.1 µM and 91.2 µM
- TGI (NCI-H522 lung): 78.5 µM and > 100 µM
- GI50 (HCC-2998 colon): 20.6 µM and > 100 µM
- TGI (HCC-2998 colon): 44.7 µM and > 100 µM
- GI50 (LOX IMVI melanoma): 18.5 µM and > 100 µM
- TGI (LOX IMVI melanoma): 45.5 µM and > 100 µM
- GI50 (SF-539 CNS): 22.4 µM and > 100 µM
- TGI (SF-539 CNS): 59.5 µM and > 100 µM
- GI50 (MALME-3M melanoma): 14.4 µM and 49.5 µM
- TGI (MALME-3M melanoma): 45.5 µM and > 100 µM
- TGI (SK-OV-3 ovarian): > 100 µM
- GI50 (HCT-116 colon): 19 µM and > 100 µM
- TGI (HCT-116 colon): 45.4 µM and > 100 µM
- GI50 (KM12 colon): 17.8 µM and > 100 µM
- TGI (KM12 colon): 42.6 µM and > 100 µM
- GI50 (A549 NSCLC): 37.6 µM and > 100 µM
- TGI (A549 NSCLC): > 100 µM
- TGI (SNB-19 CNS): > 100 µM
- GI50 (DU-145 prostate): 33.7 µM and > 100 µM
- TGI (DU-145 prostate): > 100 µM
- GI50 (MDA-MB-231 breast): 21.2 µM and > 100 µM
- TGI (MDA-MB-231 breast): 65.3 µM and > 100 µM
- GI50 (SK-MEL-5 melanoma): 22.6 µM and > 100 µM
- TGI (SK-MEL-5 melanoma): 66.4 µM and > 100 µM
- GI50 (ACHN renal): 32.1 µM and > 100 µM
- TGI (ACHN renal): > 100 µM
- GI50 (RXF 393 renal): 17.3 µM and > 100 µM
- TGI (RXF 393 renal): 69.9 µM and > 100 µM
- TGI (HS 578T breast): 65.8 µM and > 100 µM
- GI50 (OVCAR-8 ovarian): 18.6 µM and > 100 µM
- TGI (OVCAR-8 ovarian): > 100 µM
- GI50 (CCRF-CEM leukemia): 20.1 µM and 50.5 µM
- TGI (CCRF-CEM leukemia): 58.5 µM and > 100 µM
- GI50 (HT29 colon): 13.8 µM and > 100 µM
- TGI (HT29 colon): 27.2 µM and > 100 µM
- GI50 (A498 renal): 21.1 µM and 74.9 µM
- TGI (A498 renal): 49.7 µM and > 100 µM
- GI50 (RPMI-8226 leukemia): 14.6 µM and 69 µM
- TGI (RPMI-8226 leukemia): 56 µM and > 100 µM
- GI50 (M14 melanoma): 38.4 µM and > 100 µM
- TGI (M14 melanoma): > 100 µM
- GI50 (MCF7 breast): 32.1 µM and > 100 µM
- TGI (MCF7 breast): > 100 µM
- GI50 (PC-3 prostate): 24 µM and > 100 µM
- TGI (PC-3 prostate): 95.2 µM and > 100 µM
- TGI (OVCAR-5 ovarian): > 100 µM
- GI50 (UO-31 renal): 20.8 µM and > 100 µM
- TGI (UO-31 renal): > 100 µM
- GI50 (HCT-15 colon): 30 µM and > 100 µM
- TGI (HCT-15 colon): > 100 µM
- GI50 (HL-60(TB) leukemia): 17.5 µM and 46.1 µM
- TGI (HL-60(TB) leukemia): 41.7 µM and > 100 µM
- TGI (NCI-H226 lung): 29.4 µM and > 100 µM
- GI50 (SF-295 CNS): 30.6 µM and 72.9 µM
- TGI (SF-295 CNS): > 100 µM
- GI50 (T-47D breast): 16.6 µM and > 100 µM
- TGI (T-47D breast): 67.3 µM and > 100 µM
- GI50 (786-0 renal): 18.8 µM and 54.8 µM
- TGI (786-0 renal): 40.2 µM and > 100 µM
- GI50 (NCI-H23 lung): 33.8 µM and > 100 µM
- TGI (NCI-H23 lung): > 100 µM
- GI50 (MDA-N): 31.6 µM and > 100 µM
- TGI (MDA-N): > 100 µM
- GI50 (SN12C renal): 17.9 µM and > 100 µM
- TGI (SN12C renal): 38 µM and > 100 µM
- GI50 (MOLT-4 leukemia): 11 µM and 28.3 µM
- TGI (MOLT-4 leukemia): 32.7 µM and > 100 µM
